ChEMBL document CHEMBL5634141 (Eur J Med Chem, 2023)
Activity calls are given as the source filed them. No cut-off for these calls is given here.

Assays:
[1] = tested on: von Hippel-Lindau disease tumor suppressor/GTPase KRas (Homo sapiens), P01116+P40337 [G12C]; assay: (§1) PROTAC activity at VHL/KRAS G12C mutant in human NCI-H358 cells assessed as induction of protein degradation incubated for 72 hrs by Western blot analysis; format: cell-based
[2] = target: von Hippel-Lindau disease tumor suppressor/GTPase KRas (Homo sapiens, UniProt P01116+P40337, G12C); assay: as §1; format: cell-based
[3] = tested on: von Hippel-Lindau disease tumor suppressor/GTPase KRas (Homo sapiens), P01116+P40337 [G12C]; assay: PROTAC activity at VHL/KRAS G12C mutant in human NCI-H358 cells assessed as inhibition of ERK phosphorylation incubated for 48 hrs by Western blotting analysis; format: cell-based; details: dose 10-10000 nM
[4] = tested on: von Hippel-Lindau disease tumor suppressor/GTPase KRas (Homo sapiens), P01116+P40337 [G12C]; assay: PROTAC activity at VHL/KRAS G12C mutant in human NCI-H358 cells assessed as induction of protein degradation at 100 nM preincubated with MG132 for 6 hrs followed by compound addition and measured after 48 hrs by Western blot analysis; format: cell-based
[5] = tested on: von Hippel-Lindau disease tumor suppressor/GTPase KRas (Homo sapiens), P01116+P40337 [G12C]; assay: PROTAC activity at VHL/KRAS G12C mutant in human MIA PaCa-2 cells assessed as induction of protein degradation at 100 nM incubated for 48 hrs followed by compound washout by Western blotting analysis; format: cell-based
[6] = tested on: NCI-H358; assay: Inhibition of cell migration in human NCI-H358 cells incubated for 12 hrs by wound healing assay; format: functional, cell-based; details: dose 30-300 nM
[7] = tested on: NCI-H358; assay: Induction of apoptosis in human NCI-H358 cells assessed as necrotic cells at 30 nM incubated for 48 hrs by Annexin V-FITC staining based flow cytometry analysis (reference value: 1.62 %); format: functional
[8] = tested on: NCI-H358; assay: Induction of apoptosis in human NCI-H358 cells assessed as early apoptotic cells at 100 nM incubated for 48 hrs by Annexin V-FITC staining based flow cytometry analysis (reference value: 1.60 %); format: functional
[9] = tested on: NCI-H358; assay: Induction of apoptosis in human NCI-H358 cells assessed as necrotic cells at 100 nM incubated for 48 hrs by Annexin V-FITC staining based flow cytometry analysis (reference value: 1.62 %); format: functional
[10] = tested on: NCI-H358; assay: Induction of apoptosis in human NCI-H358 cells assessed as early apoptotic cells at 300 nM incubated for 48 hrs by Annexin V-FITC staining based flow cytometry analysis (reference value: 1.60 %); format: functional
[11] = tested on: NCI-H358; assay: Induction of apoptosis in human NCI-H358 cells assessed as necrotic cells at 300 nM incubated for 48 hrs by Annexin V-FITC staining based flow cytometry analysis (reference value: 1.62 %); format: functional
[12] = tested on: MIA PaCa-2; assay: Induction of apoptosis in human MIA PaCa-2 cells assessed as necrotic cells at 30 nM incubated for 48 hrs by Annexin V-FITC staining based flow cytometry analysis (reference value: 1.25 %); format: functional
[13] = tested on: NCI-H358; assay: Induction of cell cycle arrest in human NCI-H358 cells assessed as accumulation of cells at G2/M phase incubated for 48 hrs by propidium iodide staining based flow cytometry analysis; format: functional; details: dose 30-300 nM
[14] = tested on: MIA PaCa-2; assay: Antitumor activity against human MIA PaCa-2 cells xenografted in BALB/c nude mouse assessed as tumor growth inhibition at 30 mg/kg, ip measured after 8 days relative to control; format: functional; details: MIA PaCa-2, 192 h, time 8 day, read-out: TGI
[15] = tested on: MIA PaCa-2; assay: Antitumor activity against human MIA PaCa-2 cells xenografted in BALB/c nude mouse assessed as increase in percentage of cleaved-caspase 3-positive cells at 10 to 30 mg/kg, ip administered for 16 days by immunohistochemical staining analysis; format: functional, organism-based; details: dose 10-30 mg/kg, time 16.0 day
[16] = tested on: Mus musculus; assay: In vivo PROTAC activity at VHL/KRAS G12C mutant in BALB/c nude mouse xenografted with human MIA PaCa-2 cells assessed as decrease in ERK phosphorylation at 10 to 30 mg/kg, ip administered for 16 days by Western blot analysis; format: functional, organism-based; details: dose 10-30 mg/kg, time 16.0 day
[17] = tested on: Mus musculus; assay: In vivo PROTAC activity at VHL/KRAS G12C mutant in BALB/c nude mouse xenografted with human MIA PaCa-2 cells assessed as decrease in AKT phosphorylation at 10 to 30 mg/kg, ip administered for 16 days by Western blot analysis; format: functional, organism-based; details: dose 10-30 mg/kg, time 16.0 day
[18] = Half life in ICR mouse at 30 mg/kg, ip measured after 24 hrs by LC-MS/MS analysis; format: ADME, organism-based; details: in vivo
[19] = tested on: MIA PaCa-2; assay: Antiproliferative activity against human MIA PaCa-2 cells expressing KRAS G12C mutant assessed as relative cell viability at 30 nM incubated for 72 hrs by CCK-8 assay; format: functional; details: read-out: Activity
[20] = tested on: MIA PaCa-2; assay: Antiproliferative activity against human MIA PaCa-2 cells expressing KRAS G12C mutant assessed as relative cell viability at 30 nM incubated for 72 hrs in presence of infigratinib by CCK-8 assay; format: functional; details: read-out: Activity
[21] = tested on: NCI-H358; assay: Antiproliferative activity against human NCI-H358 cells expressing KRAS G12C mutant assessed as relative cell viability at 30 nM incubated for 72 hrs in presence of crizotinib by CCK-8 assay; format: functional; details: read-out: Activity
[22] = tested on: MIA PaCa-2; assay: Antiproliferative activity against human MIA PaCa-2 cells expressing KRAS G12C mutant assessed as relative cell viability at 30 nM incubated for 72 hrs in presence of MK-2206 by CCK-8 assay; format: functional; details: read-out: Activity
[23] = tested on: NCI-H23; assay: Antiproliferative activity against human NCI-H23 cells expressing KRAS G12C mutant assessed as relative cell viability at 30 nM incubated for 72 hrs in presence of selumetinib by CCK-8 assay; format: functional; details: read-out: Activity
[24] = tested on: MIA PaCa-2; assay: Antiproliferative activity against human MIA PaCa-2 cells expressing KRAS G12C mutant assessed as relative cell viability at 30 nM incubated for 72 hrs in presence of daclolisib by CCK-8 assay; format: functional; details: read-out: Activity
[25] = tested on: NCI-H358; assay: Synergistic antiproliferative activity against human NCI-H358 cells expressing KRAS G12C mutant assessed as combination index at 30 nM incubated for 72 hrs in presence of naporafenib by CCK-8 assay; format: functional
[26] = tested on: MIA PaCa-2; assay: Antiproliferative activity against human MIA PaCa-2 cells expressing KRAS G12C mutant assessed as reduction of cell growth by measuring fold decrease in IC50 incubated for 72 hrs in presence of SHP099 by CCK-8 assay; format: functional
[27] = tested on: NCI-H358; assay: Synergistic antiproliferative activity against human NCI-H358 cells expressing KRAS G12C mutant assessed as combination index incubated for 72 hrs in presence of SHP099 by CCK-8 assay; format: functional
[28] = tested on: NCI-H358; assay: Synergistic antiproliferative activity against human NCI-H358 cells expressing KRAS G12C mutant assessed as combination index incubated for 72 hrs in presence of linsitinib by CCK-8 assay; format: functional
[29] = tested on: NCI-H358; assay: Inhibition of colony formation in human NCI-H358 cells expressing KRAS G12C mutant assessed as reduction in cell number at 30 nM incubated for 14 days in presence of AZD4573 by crystal violet staining based analysis; format: functional; details: time 14.0 day
[30] = tested on: MIA PaCa-2; assay: Inhibition of colony formation in human MIA PaCa-2 cells expressing KRAS G12C mutant assessed as reduction in cell number at 30 nM incubated for 14 days in presence of linsitinib by crystal violet staining based analysis; format: functional; details: time 14.0 day
[31] = tested on: von Hippel-Lindau disease tumor suppressor/GTPase KRas (Homo sapiens), P01116+P40337 [G12C]; assay: PROTAC activity at VHL/KRAS G12C mutant in human MIA PaCa-2 cells assessed as induction of protein degradation at 100 nM incubated for 48 hrs followed by compound washout and measured after 48 hrs by Western blotting analysis; format: cell-based

Sequence of von Hippel-Lindau disease tumor suppressor/GTPase KRas (P01116 whole entry G12C, stated change not applied): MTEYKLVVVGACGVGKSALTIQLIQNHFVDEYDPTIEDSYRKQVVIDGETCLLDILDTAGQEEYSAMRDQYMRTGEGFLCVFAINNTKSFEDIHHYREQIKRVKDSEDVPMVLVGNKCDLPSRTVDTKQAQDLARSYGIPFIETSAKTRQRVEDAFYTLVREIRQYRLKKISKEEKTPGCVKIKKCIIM
Sequence of von Hippel-Lindau disease tumor suppressor/GTPase KRas (P40337 whole entry partner, stated change not applied): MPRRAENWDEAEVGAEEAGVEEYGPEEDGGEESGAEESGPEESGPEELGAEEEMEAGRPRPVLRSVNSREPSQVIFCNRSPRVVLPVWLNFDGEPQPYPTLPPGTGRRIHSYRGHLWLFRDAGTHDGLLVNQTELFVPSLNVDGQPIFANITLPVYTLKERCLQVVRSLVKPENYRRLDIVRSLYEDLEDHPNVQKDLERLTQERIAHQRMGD

## C=CC(=O)N1CCN(c2nc(=O)n(-c3c(C)ccnc3C(C)C)c3nc(-c4c(F)cccc4OCC4CCN(CCCC(=O)N[C@H](C(=O)N5C[C@H](O)C[C@H]5C(=O)NCc5ccc(-c6scnc6C)cc5)C(C)(C)C)CC4)c(F)cc23)[C@@H](C)C1
[1]
  Activity: Dose-Dependent Effect
[2]
  DC50: 67 nM
[3]
  Activity: Dose-Dependent Effect
[4]
  Activity: inactive
[5]
  Activity: Active
[6]
  inhibition: Dose-Dependent Effect
[7]
  Activity: 1.01%
[8]
  Activity: 2.94%
[9]
  Activity: 1.12%
[10]
  Activity: 4.06%
[11]
  Activity: 1.7%
[12]
  Activity: 1.37%
[13]
  Activity: Dose-Dependent Effect
[14]
  inhibition in vivo at 30 mg/kg: > 100%
[15]
  Activity: Active
[16]
  Activity: Active
[17]
  Activity: Active
[18]
  half-life: 3.87 h
[19]
  viability at 0.03 µM: 0.71%
[20]
  viability at 0.03 µM: 0.35%
[21]
  viability at 0.03 µM: 0.43%
[22]
  viability at 0.03 µM: 0.24%
[23]
  viability at 0.03 µM: 0.24%
[24]
  viability at 0.03 µM: 0.17%
[25]
  CI: <1
[26]
  fold change (FC): ~4
[27]
  CI: <1
[28]
  CI: <1
[29]
  inhibition: Active
[30]
  inhibition: Active
[31]
  Activity: inactive
